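Method: 48-hour compound exposure of cells in 96-well plates, five concentrations, linear interpolation of endpoints. TGI: concentration producing complete growth inhibition.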
How the values were obtained:
Assay in all cases: NCI tumour cell line growth inhibition, 48 h
A498 renal = tested on: A498 renal
A549 NSCLC = tested on: A549 NSCLC
BT-549 breast = tested on: BT-549 breast
CAKI-1 renal = tested on: CAKI-1 renal
CCRF-CEM leukemia = tested on: CCRF-CEM leukemia
COLO 205 colon = tested on: COLO 205 colon
DU-145 prostate = tested on: DU-145 prostate
EKVX NSCLC = tested on: EKVX NSCLC
HCC-2998 colon = tested on: HCC-2998 colon
HCT-116 colon = tested on: HCT-116 colon
HCT-15 colon = tested on: HCT-15 colon
HL-60(TB) leukemia = tested on: HL-60(TB) leukemia
HOP-62 NSCLC = tested on: HOP-62 NSCLC
HOP-92 NSCLC = tested on: HOP-92 NSCLC
HS 578T breast = tested on: HS 578T breast
HT29 colon = tested on: HT29 colon
IGROV1 ovarian = tested on: IGROV1 ovarian
K-562 leukemia = tested on: K-562 leukemia
LOX IMVI melanoma = tested on: LOX IMVI melanoma
M14 melanoma = tested on: M14 melanoma
MALME-3M melanoma = tested on: MALME-3M melanoma
MCF7 breast = tested on: MCF7 breast
MDA-MB-231 breast = tested on: MDA-MB-231 breast
MDA-MB-435 = tested on: MDA-MB-435
MDA-N = tested on: MDA-N
MOLT-4 leukemia = tested on: MOLT-4 leukemia
NCI-H226 lung = tested on: NCI-H226 lung
NCI-H23 lung = tested on: NCI-H23 lung
NCI-H460 lung = tested on: NCI-H460 lung
NCI/ADR-RES ovarian = tested on: NCI/ADR-RES ovarian
OVCAR-3 ovarian = tested on: OVCAR-3 ovarian
OVCAR-4 ovarian = tested on: OVCAR-4 ovarian
OVCAR-5 ovarian = tested on: OVCAR-5 ovarian
OVCAR-8 ovarian = tested on: OVCAR-8 ovarian
PC-3 prostate = tested on: PC-3 prostate
RXF 393 renal = tested on: RXF 393 renal
SF-268 CNS = tested on: SF-268 CNS
SF-295 CNS = tested on: SF-295 CNS
SF-539 CNS = tested on: SF-539 CNS
SK-MEL-2 melanoma = tested on: SK-MEL-2 melanoma
SK-MEL-28 melanoma = tested on: SK-MEL-28 melanoma
SK-MEL-5 melanoma = tested on: SK-MEL-5 melanoma
SK-OV-3 ovarian = tested on: SK-OV-3 ovarian
SN12C renal = tested on: SN12C renal
SNB-75 CNS = tested on: SNB-75 CNS
SR leukemia = tested on: SR leukemia
SW-620 colon = tested on: SW-620 colon
T-47D breast = tested on: T-47D breast
TK-10 renal = tested on: TK-10 renal
U251 CNS = tested on: U251 CNS
UACC-257 melanoma = tested on: UACC-257 melanoma
UACC-62 melanoma = tested on: UACC-62 melanoma
UO-31 renal = tested on: UO-31 renal
786-0 renal = tested on: 786-0 renal
ACHN renal = tested on: ACHN renal
KM12 colon = tested on: KM12 colon
RPMI-8226 leukemia = tested on: RPMI-8226 leukemia
SNB-19 CNS = tested on: SNB-19 CNS

Measured: TGI

Cc1ccc(NN=NCCCCN=NNc2ccc(C)cc2)cc1
98.4 µM: CCRF-CEM leukemia
2.1 µM: UO-31 renal
17.9 µM: TK-10 renal
30.3 µM: HL-60(TB) leukemia
81.2 µM: NCI-H23 lung
not listed: 786-0 renal | ACHN renal | KM12 colon | RPMI-8226 leukemia | SNB-19 CNS
> 100 µM: all other assays above

CC(=O)/C(N=Nc1ccc(-n2c(C)nc3ccccc3c2=O)cc1)=C(/C)O
not listed: HCC-2998 colon | MALME-3M melanoma | OVCAR-4 ovarian | RXF 393 renal
> 100 µM: all other assays above

NC(N)=NCCCC(NC(=O)OCCCCCn1ccc(N)nc1=O)C(=O)O (stereo not drawn)
not listed: MALME-3M melanoma | SK-MEL-5 melanoma
> 100 µM: all other assays above
